Among the data in patent US20070219186A1, “Pyrazolo[1,5-A]pyrimidine derivatives and methods of use thereof” (priority 2006, published 2007) are IC50 and inhibition values, retold here.

The structures appear in SMILES notation. pIC50: −log10 of the molar value. Where two headings read alike, the source gives them in different places.

The target in this assay is T1, human B-Raf (Homo sapiens, UniProt P15056).
T1 construct: Flag; GST; made in house; host or cells: Sf9 insect cells (B-Raf); E. coli (MEK1-GST)
Description: B-Raf Kinase to MEK1 ELISA. To be noted: for inhibition at 10 µM: read-out: % Inhib./10 uM. The class given is biochemical. A digest of the protocol:
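Flag/GST-tagged human B-Raf (Sf9, ~20 ng/point) phosphorylates non-active GST-MEK1 (50 nM final) with ATP and MgCl2 in MOPS pH 7.2 buffer, 60 min at RT. Product is captured on anti-GST plates; MEK1 pSer217/221 is read by phospho-antibody plus europium conjugate (DELFIA).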
For orientation: ELISA stands for enzyme-linked immunosorbent assay.

[1] abbreviates: median, cpd concentrations from 10 μM to 30 nM in half log dilutions, read-out: Median IC50.

A word on the pIC50: it is the negative decadic logarithm of the IC50, by convention in mol/L.

T1 sequence (P15056 whole entry): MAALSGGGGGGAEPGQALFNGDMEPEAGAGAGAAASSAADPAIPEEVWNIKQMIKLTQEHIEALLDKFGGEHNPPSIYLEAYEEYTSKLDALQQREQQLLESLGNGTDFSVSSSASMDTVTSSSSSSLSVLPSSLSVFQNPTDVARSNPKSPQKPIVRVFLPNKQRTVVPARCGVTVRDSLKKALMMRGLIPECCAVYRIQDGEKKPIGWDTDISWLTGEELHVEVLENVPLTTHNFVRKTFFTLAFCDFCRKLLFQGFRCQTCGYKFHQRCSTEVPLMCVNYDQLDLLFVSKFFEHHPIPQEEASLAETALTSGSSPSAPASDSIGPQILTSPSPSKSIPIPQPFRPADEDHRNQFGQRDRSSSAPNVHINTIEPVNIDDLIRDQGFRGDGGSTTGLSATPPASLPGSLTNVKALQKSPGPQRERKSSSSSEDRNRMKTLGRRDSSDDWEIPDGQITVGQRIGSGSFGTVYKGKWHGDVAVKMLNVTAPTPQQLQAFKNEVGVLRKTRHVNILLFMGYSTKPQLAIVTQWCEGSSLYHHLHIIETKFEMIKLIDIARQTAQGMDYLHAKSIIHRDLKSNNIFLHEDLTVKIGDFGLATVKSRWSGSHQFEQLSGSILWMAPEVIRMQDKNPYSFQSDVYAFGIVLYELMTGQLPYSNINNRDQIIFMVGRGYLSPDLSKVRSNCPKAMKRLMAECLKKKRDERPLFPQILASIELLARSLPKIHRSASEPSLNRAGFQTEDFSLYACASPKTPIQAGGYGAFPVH

For the compound `CN1CCN(CCCNC(=O)c2cnn3c(-c4cccc(NC(=O)c5cccc(C(F)(F)F)c5)c4)ccnc23)CC1` [Example 50, N-[3-(4-methylpiperazin-1-yl)propyl]-7-(3-{[3-(trifluoromethyl)benzoyl]amino}phenyl)pyrazolo[1,5-a]pyrimidine-3-carboxamide], the inhibition at 10 µM is 42%. Also, the pIC50 under setting [1] is 5.10.
Regarding `N#Cc1ccc(-c2cnn3c(-c4cccc(NC(=O)c5cccc(C(F)(F)F)c5)c4)ccnc23)cc1` [Example 295, N-{3-[3-(4-cyanophenyl)pyrazolo[1,5-a]pyrimidin-7-yl]phenyl}-3-(trifluoromethyl)benzamide], the inhibition at 10 µM was determined as 41%. The pIC50 under setting [1] is less than 5.00.
In the case of `COC(=O)c1cccc(-c2cnn3c(-c4cccc(NC(=O)c5cccc(C(F)(F)F)c5)c4)ccnc23)c1` [Example 296, methyl 3-[7-(3-{[3-(trifluoromethyl)benzoyl]amino}phenyl)pyrazolo[1,5-a]pyrimidin-3-yl]benzoate], the pIC50 is 5.75 and the inhibition at 10 µM was 53%.
For `O=C(Nc1cccc(-c2ccnc3cc(-c4cccnc4)nn23)c1)c1cccc(C(F)(F)F)c1` [Example 152, N-[3-(2-pyridin-3-ylpyrazolo[1,5-a]pyrimidin-7-yl)phenyl]-3-(trifluoromethyl)benzamide], the pIC50 under setting [1] was less than 5.00.
For the compound `CN(C)CCCC(=O)Nc1ccc(-c2cnn3c(-c4cccc(NC(=O)c5cccc(C(F)(F)F)c5)c4)ccnc23)cc1` [Example 234, N-{3-[3-(4-{[4-(dimethylamino)butanoyl]amino}phenyl)pyrazolo[1,5-a]pyrimidin-7-yl]phenyl}-3-(trifluoromethyl)benzamide], the inhibition at 10 µM stood at 96%. In addition, the pIC50 under setting [1] is 7.72.
Regarding `O=C(Nc1cccc(-c2ccnc3c(-c4ccc(CO)cc4)cnn23)c1)c1cccc(C(F)(F)F)c1` [Example 285, N-(3-{3-[4-(hydroxymethyl)phenyl]pyrazolo[1,5-a]pyrimidin-7-yl}phenyl)-3-(trifluoromethyl)benzamide], the pIC50 is 7.08 and the inhibition at 10 µM was found to be 93%.
In the case of `O=Cc1cc(C=O)cc(-c2cnn3c(-c4cccc(NC(=O)c5cccc(C(F)(F)F)c5)c4)ccnc23)c1` [Example 310, N-{3-[3-(3,5-diformylphenyl)pyrazolo[1,5-a]pyrimidin-7-yl]phenyl}-3-(trifluoromethyl)benzamide], the inhibition at 10 µM was found to be 37%. Further, the pIC50 under setting [1] was less than 5.00.
In the same order, the values of `O=C(Nc1cccc(-c2ccnc3cc(-c4ccc(Cl)cc4)nn23)c1)c1cccc(C(F)(F)F)c1` [Example 115, N-{3-[2-(4-chlorophenyl)pyrazolo[1,5-a]pyrimidin-7-yl]phenyl}-3-(trifluoromethyl)benzamide] are 24% and less than 5.00.
In the same order, the values of `CCOC(=O)c1cnn2c(-c3cccc(NC(=O)Nc4cc(C)on4)c3)ccnc12` [Example 248, ethyl7-[3-({[(5-methylisoxazol-3-yl)amino]carbonyl}amino)phenyl]pyrazolo[1,5-a]pyrimidine-3-carboxylate] are 10% and less than 5.00.
For `Cc1ccc(C(=O)Nc2cccc(-c3ccnc4cc(-c5ccncc5)nn34)c2)cc1` [Example 148, 4-methyl-N-[3-(2-pyridin-4-ylpyrazolo[1,5-a]pyrimidin-7-yl)phenyl]benzamide], the inhibition at 10 µM came out at 20%. For the same compound, under setting [1], the pIC50 is less than 5.00.
As for `CCOC(=O)c1cnn2c(-c3cccc(NC(=O)c4ccc(Cl)c(C(F)(F)F)c4)c3)ccnc12` [Example 103, ethyl 7-(3-{[4-chloro-3-(trifluoromethyl)benzoyl]amino}phenyl)pyrazolo[1,5-a]pyrimidine-3-carboxylate], the inhibition at 10 µM is 59%. Under setting [1], the pIC50 was 5.60.
With `Cc1cnc2c(Br)cnn2c1-c1cccc(NC(=O)c2cccc(C(F)(F)F)c2)c1` [Example 178, N-[3-(3-bromo-6-methylpyrazolo[1,5-a]pyrimidin-7-yl)phenyl]-3-(trifluoromethyl)benzamide], the pIC50 was 5.50 and the inhibition at 10 µM is 67%.
`CCOC(=O)c1cnn2c(-c3cccc(NC(=O)Nc4ccc(F)c(Cl)c4)c3)ccnc12` [Example 25, ethyl 7-[3-({[(3-chloro-4-fluorophenyl)amino]carbonyl}amino)phenyl]pyrazolo[1,5-a]pyrimidine-3-carboxylate]: the inhibition at 10 µM turned out to be 76%. Also, the pIC50 under setting [1] is 6.22.
For `COCCNC(=O)c1cnn2c(-c3cccc(NC(=O)c4cccc(C(F)(F)F)c4)c3)ccnc12` [Example 45, N-(2-methoxyethyl)-7-(3-{[3-(trifluoromethyl)benzoyl]amino}phenyl)pyrazolo[1,5-a]pyrimidine-3-carboxamide], the inhibition at 10 µM was 56%.
As to `CCOC(=O)c1cnn2c(-c3cccc(NC(=O)c4ccc(C(F)(F)F)c(F)c4)c3)ccnc12` [Example 9, ethyl 7-(3-{[3-fluoro-4-(trifluoromethyl)benzoyl]amino}phenyl)pyrazolo[1,5-a]pyrimidine-3-carboxylate], the inhibition at 10 µM was 20%. Besides, the pIC50 under setting [1] is less than 4.70.
On to `CCOC(=O)c1cnn2c(-c3ccc(OC)c(NC(=O)c4ccc(C)c(C(F)(F)F)c4)c3)ccnc12` [Example 107, ethyl 7-(4-methoxy-3-{[4-methyl-3-(trifluoromethyl)benzoyl]amino}phenyl)pyrazolo[1,5-a]pyrimidine-3-carboxylate], for which the inhibition at 10 µM was determined as 0%. Also, the pIC50 under setting [1] was less than 5.00.
In the case of `CCOC(=O)c1cnn2c(-c3cccc(NC(=O)Cc4c(F)ccc(F)c4F)c3)ccnc12` [Example 102, ethyl 7-(3-{[(2,3,6-trifluorophenyl)acetyl]amino}phenyl)pyrazolo[1,5-a]pyrimidine-3-carboxylate], the inhibition at 10 µM stood at 0%. Under setting [1], the pIC50 is less than 5.00.
For `CN(C)S(=O)(=O)c1ccc(-c2cnn3c(-c4cccc(NC(=O)c5cccc(C(F)(F)F)c5)c4)ccnc23)cc1` [Example 288, N-[3-(3-{4-[(dimethylamino)sulfonyl]phenyl}pyrazolo[1,5-a]pyrimidin-7-yl)phenyl]-3-(trifluoromethyl)benzamide], the inhibition at 10 µM came out at 35%. The pIC50 under setting [1] is less than 5.00.
Take `Cc1ccc(C(=O)Nc2cccc(-c3ccnc4c(C(N)=O)cnn34)c2)cc1C(F)(F)F` [Example 67, 7-(3-{[4-methyl-3-(trifluoromethyl)benzoyl]amino}phenyl)pyrazolo[1,5-a]pyrimidine-3-carboxamide]: the inhibition at 10 µM is 6%. The pIC50 under setting [1] was less than 5.00.
As to `CN1CCN(c2cc3nccc(-c4cccc(NC(=O)c5cccc(C(F)(F)F)c5)c4)n3n2)CC1` [Example 203, N-{3-[2-(4-methylpiperazin-1-yl)pyrazolo[1,5-a]pyrimidin-7-yl]phenyl}-3-(trifluoromethyl)benzamide], the pIC50 is less than 5.00 and the inhibition at 10 µM turned out to be 16%.
On to `CCOC(=O)c1cnn2c(-c3cccc(NC(=O)c4cccc(C(F)(F)F)c4)c3)c(C)cnc12` [Example 176, ethyl 6-methyl-7-(3-{[3-(trifluoromethyl)benzoyl]amino}phenyl)pyrazolo[1,5-a]pyrimidine-3-carboxylate], for which the inhibition at 10 µM stood at 86%. Besides, the pIC50 under setting [1] was 6.44.
